In PMC7248923, “A New Oleanane Type Saponin from the Aerial Parts of Nigella sativa with Anti-Oxidant and Anti-Diabetic Potential” (Molecules, 2020) one finds IC50 data, which are given here for seven compounds.

Assay [1] can be described thus: DPPH radical scavenging assay. The conditions noted are these: mean of three determinations ± SD; Nd = not detected; 30 min at 37 °C, 517 nm. As for the experimental part:
The DPPH activity of the isolated compounds and extracts were evaluated as described previously. Twenty μ L of samples having different concentrations of the extract (100, 500, 250, and 125 µg/mL) and isolated compounds (100, 75, 50, and 25 μ M) keeping the total volume of solution at 180 μL (0.1 mM) solution, was added in 96 well plates and incubated for 30 min at 37 °C. The observation was measured at 517nm. Each observation was done in triplicate. Ascorbic acid and Trolox were used as positive controls, while methanol was used as a negative control. Inhibition % was calculated. Data were presented as the mean ± S.D.

Assay [2] is described as follows: ABTS radical scavenging assay. The conditions noted are these: mean of three determinations ± SD; Nd = not detected; 732 nm. As for the experimental part:
ABTS inhibition of the isolated compounds and extracts were evaluated as described previously. Stock solution was prepared by mixing an equal volume of 7.4 mM of ABTS and 2.6 mM of potassium persulfate and kept for 24 hours before diluting with methanol. Later the solution was diluted with methanol till the absorbance at 732 nm came within the range of 0.8–1.2. To 50 µL of sample solutions of different concentration (250, 125, 100, 50 μM ) 950 μL of ABTS* was added. Absorbance was measured at 732 nm by a spectrophotometer. Ascorbic acid and Trolox, and methanol were used as a positive and negative controls, respectively. All observations were done in triplicate. Percentage inhibition was calculated from the observations. Data were presented as mean ± S.D.

In assay [3] the target is T1, human recombinant PTP1B (Homo sapiens, UniProt P18031).
T1 construct: purchased Sigma-Aldrich
T1 sequence (P18031 1-435): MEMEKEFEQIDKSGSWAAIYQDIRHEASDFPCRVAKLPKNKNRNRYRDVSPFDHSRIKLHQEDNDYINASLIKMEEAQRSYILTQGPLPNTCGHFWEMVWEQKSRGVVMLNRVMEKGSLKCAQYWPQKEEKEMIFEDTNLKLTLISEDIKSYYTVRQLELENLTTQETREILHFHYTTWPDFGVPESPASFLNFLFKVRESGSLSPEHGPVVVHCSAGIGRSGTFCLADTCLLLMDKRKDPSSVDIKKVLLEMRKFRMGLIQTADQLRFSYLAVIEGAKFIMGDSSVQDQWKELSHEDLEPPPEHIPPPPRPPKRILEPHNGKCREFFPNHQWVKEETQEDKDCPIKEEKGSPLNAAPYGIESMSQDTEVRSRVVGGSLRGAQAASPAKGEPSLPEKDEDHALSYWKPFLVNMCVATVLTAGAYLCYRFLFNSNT
As to the kind of experiment: PTP1B inhibitory assay (pNPP substrate). Type of assay: biochemical. Particulars: mean of three determinations ± SD, Nd = not detected, pH 6, 37 °C.
Experimental: The inhibitory activity of the isolated compounds against human recombinant PTP1B was evaluated using p-nitrophenyl phosphate (pNPP) as a substrate. Firstly, 2 mM pNPP and PTP1B were mixed with 50 mM citrate buffer of pH 6 and 0.1 mM NaCl, 1 mM EDTA, and 1 mM DTT with or without sample keeping the final volume of the solution at 110 μL and placing them in a 96 wells plate. […] The plate was first pre-incubated for 10 min at 37 °C, and then 50 μL of pNPP in buffer was added. The plate was again incubated for 30 min at 37 °C. After that, 10 μL of 10M NaOH was added dropwise to stop the reaction. […] The inhibition percentage was calculated with the formula [( Ac−As/Ac )] × 100%, where Ac is the absorbance of control while As is the absorbance of the sample. […] Data were presented as mean ± S.D [35].

Consider `O=C1O[C@H]([C@@H](O)CO)C(O)=C1O` [Ascorbic acid, reference compound], for which the half-inhibitory concentration (IC50) in assay [1] was determined as 51.7 ± 0.1 µM; in assay [2] it was 82.9 ± 2 µM. As for `COc1ccc2c(c1O)-c1c(O)c(OC)cc3c1[C@H](C2)[N+](C)(C)CC3` [Compound 5, magnoflorine], the IC50 in assay [1] was determined as 71 ± 0.5 µM; in assay [2], 139.2 ± 0.5 µM. The matching figures for `O=c1c(OC2OC(CO)C(O)C(O)C2OC2OC(CO)C(O)C(O)C2OC2OC(CO)C(O)C(O)C2O)c(-c2ccc(O)c(O)c2)oc2cc(O)cc(O)c12` (stereo not shown) [Compound 8, quercetin sphorotrioside]: 35.5 ± 0.5 µM and 98.8 ± 0.5 µM.

For `O=c1c(OC2OC(CO)C(O)C(O)C2O)c(-c2ccc(O)cc2)oc2cc(OC3OC(CO)C(O)C(O)C3O)cc(O)c12` (stereo not shown) [Compound 9, kaempferol-3,7-diglucoside], the half-maximal inhibitory concentration (IC50) is 198 ± 2.7 µM in assay [1] and 247 ± 2.7 µM in assay [2]. For `C[C@@H]1O[C@@H](OC[C@H]2O[C@@H](Oc3c(-c4ccc(O)c(O)c4)oc4cc(O)cc(O)c4c3=O)[C@H](O)[C@@H](O)[C@@H]2O)[C@H](O)[C@H](O)[C@H]1O` [Compound 11, rutin] the same measures were 39.6 ± 0.5 µM and 129 ± 0.5 µM. Take `CC1OC(OC2C(OC3CCC4(C)C(CCC5(C)C4CC=C4C6CC(C)(C)CCC6(C(=O)O)CCC45C)C3(C)CO)OCC(O)C2O)C(O)C(O)C1O` [Compound 12, 3-O-[α-L-rhamnopyranosyl-(1→2)-α-L-arabinopyranpsyl]hederagenin]: the 50% inhibitory concentration (IC50) in assay [3] came out at 91.3 ± 2.5 µM.

Consider `Cc1c(C)c2c(c(C)c1O)CCC(C)(C(=O)O)O2` (stereo not shown) [Trolox, reference compound], for which the IC50 in assay [1] was 59.4 ± 0.9 µM; in assay [2] it was 96.2 ± 1.5 µM.
